Among the data in US20250099478A1, “PLASMA KALLIKREIN INHIBITORS” (Merck Sharp & Dohme LLC, priority 2022, published 2025) are IC50 values, retold here.

In this assay the target is T1, Human plasma kallikrein (Homo sapiens, UniProt P03952).
T1 construct: yields a heavy chain (371 amino acids) and a light chain (248 amino acids); purchased Enzyme Research Laboratories
T1 sequence (P03952 391-638 limits assumed): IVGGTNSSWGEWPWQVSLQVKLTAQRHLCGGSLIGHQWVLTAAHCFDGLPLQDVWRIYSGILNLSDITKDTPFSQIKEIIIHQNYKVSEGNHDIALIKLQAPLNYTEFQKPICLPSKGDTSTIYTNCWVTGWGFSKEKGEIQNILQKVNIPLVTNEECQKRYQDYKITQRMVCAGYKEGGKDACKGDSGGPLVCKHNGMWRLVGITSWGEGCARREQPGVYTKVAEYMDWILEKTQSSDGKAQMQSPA
T1 sequence (P03952 20-390 partner limits assumed): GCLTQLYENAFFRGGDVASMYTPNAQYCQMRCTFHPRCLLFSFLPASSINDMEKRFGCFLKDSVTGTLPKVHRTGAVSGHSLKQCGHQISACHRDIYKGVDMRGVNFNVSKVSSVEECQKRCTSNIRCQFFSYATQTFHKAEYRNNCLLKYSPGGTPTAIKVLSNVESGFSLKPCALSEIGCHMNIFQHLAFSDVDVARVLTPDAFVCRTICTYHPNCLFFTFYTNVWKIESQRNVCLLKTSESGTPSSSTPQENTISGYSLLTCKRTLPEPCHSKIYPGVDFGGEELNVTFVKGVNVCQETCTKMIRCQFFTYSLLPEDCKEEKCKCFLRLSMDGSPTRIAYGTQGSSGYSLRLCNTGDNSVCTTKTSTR
Description: Plasma Kallikrein Assay. Format: biochemical. Conditions: purified Human plasma kallikrein 0.5 nM, substrate Acetyl-K-P-R-AFC; read-out: PKal IC50. As for the experimental part: The effectiveness of a compound of the present invention as an inhibitor of plasma kallikrein can be determined using a relevant purified serine protease, and an appropriate synthetic substrate. The rate of hydrolysis of the chromogenic or fluorogenic substrate by the relevant serine protease was measured both in the absence and presence of compounds of the present invention. Assays were conducted at rt or at 37° C. […] A decrease in the rate of fluorescence change in the presence of inhibitor is indicative of enzyme inhibition. Such methods are known to one skilled in the art. The results of this assay are expressed as the half-maximal inhibitory concentrations (IC50), or the inhibitory constant, Ki.
Plasma kallikrein determinations were made in 50 mM HEPES buffer at pH 7.4 containing 150 mM NaCl, 5 mM CaCl2), and 0.1% PEG 8000 (polyethylene glycol; Fisher Scientific). Determinations were made using purified Human plasma kallikrein at a final concentration of 0.5 nM (Enzyme Research Laboratories) and the synthetic substrate, Acetyl-K-P-R-AFC (Sigma #C6608) at a concentration of […].
Times required to achieve equilibration between enzyme and inhibitor were determined in control experiments. […] IC50 was determined by inflection point from a four parameter logistic curve fit. Ki was calculated using the Cheng Prusoff equation, Ki=IC50/(1+([S]/Km)).
The IC50 is the concentration at which inhibition is half-maximal. For the compound `COC(=O)c1ccc(Cn2cc(C(=O)N3CCC[C@@]4(C3)OC(=O)Nc3ccc(Cl)c(F)c34)cn2)cc1F` [Example 49, Methyl (R)-4-((4-(6-chloro-5-fluoro-2-oxo-1,2-dihydrospiro[benzo[d][1,3]oxazine-4,3′-piperidine]-1′-carbonyl)-1H-pyrazol-1-yl)methyl)-2-fluorobenzoate], the 50% inhibitory concentration (IC50) worked out at 47 nM.
For `O=C1Nc2ccc(Cl)c(F)c2[C@@]2(CCCN(C(=O)c3cnn(Cc4ccc(-n5cc[nH]c5=O)cc4)c3)C2)O1` [Example 50, (R)-6-Chloro-5-fluoro-1′-(1-(4-(2-oxo-2,3-dihydro-1H-imidazol-1-yl)benzyl)-1H-pyrazole-4-carbonyl)spiro[benzo[d][1,3]oxazine-4,3′-piperidin]-2(1H)-one], the IC50 was found to be 13.7 nM.
Under `CN1CCOc2cc(Cn3cc(C(=O)N4CCC[C@@]5(C4)OC(=O)Nc4ccc(Cl)c(F)c45)cn3)ccc21` [Example 51, (R)-6-Chloro-5-fluoro-1′-(1-((4-methyl-3,4-dihydro-2H-benzo[b][1,4]oxazin-7-yl)methyl)-1H-pyrazole-4-carbonyl)spiro[benzo[d][1,3]oxazine-4,3′-piperidin]-2(1H)-one] stands 35.1 nM; under `O=C(O)COc1ccc(Cn2cc(C(=O)N3CCC[C@@]4(C3)OC(=O)Nc3ccc(Cl)c(F)c34)cn2)cc1` [Example 52, (R)-2-(4-((4-(6-Chloro-5-fluoro-2-oxo-1,2-dihydrospiro[benzo[d][1,3]oxazine-4,3′-piperidine]-1′-carbonyl)-1H-pyrazol-1-yl)methyl)phenoxy)acetic acid], 24.1 nM.
The value for `O=C1Nc2ccc(Cl)c(F)c2[C@@]2(CCCN(C(=O)c3cnn(Cc4ccc(-c5c[nH]c(=O)o5)cc4)c3)C2)O1` [Example 53, (R)-6-Chloro-5-fluoro-1′-(1-(4-(2-oxo-2,3-dihydrooxazol-5-yl)benzyl)-1H-pyrazole-4-carbonyl)spiro[benzo[d][1,3]oxazine-4,3′-piperidin]-2(1H)-one] was 18.5 nM; that for `O=C1Nc2ccc(Cl)c(F)c2[C@@]2(CCCN(C(=O)c3cnn(Cc4ccc5c(c4)OCCO5)c3)C2)O1` [Example 54, (R)-6-Chloro-1′-(1-((2,3-dihydrobenzo[b][1,4]dioxin-6-yl)methyl)-1H-pyrazole-4-carbonyl)-5-fluorospiro[benzo[d][1,3]oxazine-4,3′-piperidin]-2(1H)-one] was 29.8 nM.
Under `O=C1Nc2ccc(Cl)c(F)c2[C@@]2(CCCN(C(=O)c3cnn(Cc4ccc5ccsc5c4)c3)C2)O1` [Example 55, (R)-1′-(1-(Benzo[b]thiophen-6-ylmethyl)-1H-pyrazole-4-carbonyl)-6-chloro-5-fluorospiro[benzo[d][1,3]oxazine-4,3′-piperidin]-2(1H)-one] stands 17.1 nM; under `O=C1Nc2ccc(Cl)c(F)c2[C@@]2(CCCN(C(=O)c3cnn(Cc4ccc5c(c4)COCC5)c3)C2)O1` [Example 56, (R)-6-Chloro-5-fluoro-1′-(1-(isochroman-7-ylmethyl)-1H-pyrazole-4-carbonyl)spiro[benzo[d][1,3]oxazine-4,3′-piperidin]-2(1H)-one], 10.9 nM; under `Nc1noc2ccc(Cn3cc(C(=O)N4CCC[C@@]5(C4)OC(=O)Nc4ccc(Cl)c(F)c45)cn3)cc12` [Example 57, (R)-1′-(1-((3-Aminobenzo[d]isoxazol-5-yl)methyl)-1H-pyrazole-4-carbonyl)-6-chloro-5-fluorospiro[benzo[d][1,3]oxazine-4,3′-piperidin]-2(1H)-one], 29.7 nM.
With `O=C1Nc2ccc(Cl)c(F)c2[C@@]2(CCCN(C(=O)c3cnn(Cc4ccc5c(c4)CC(CO)O5)c3)C2)O1` (stereo partly drawn) [Example 58, (4R)-6-Chloro-5-fluoro-1′-(1-((2-(hydroxymethyl)-2,3-dihydrobenzofuran-5-yl)methyl)-1H-pyrazole-4-carbonyl)spiro[benzo[d][1,3]oxazine-4,3′-piperidin]-2(1H)-one], the half-maximal inhibitory concentration (IC50) is 10.7 nM.
Under `CC1(C)COc2cc(Cn3cc(C(=O)N4CCC[C@@]5(C4)OC(=O)Nc4ccc(Cl)c(F)c45)cn3)ccc21` [Example 59, (R)-6-Chloro-1′-(1-((3,3-dimethyl-2,3-dihydrobenzofuran-6-yl)methyl)-1H-pyrazole-4-carbonyl)-5-fluorospiro[benzo[d][1,3]oxazine-4,3′-piperidin]-2(1H)-one] stands 22.9 nM; under `O=C1Nc2ccc(Cl)c(F)c2[C@@]2(CCCN(C(=O)c3cnn(Cc4ccc5c(c4)COC5)c3)C2)O1` [Example 60, (R)-6-chloro-1′-(1-((1,3-dihydroisobenzofuran-5-yl)methyl)-1H-pyrazole-4-carbonyl)-5-fluorospiro[benzo[d][1,3]oxazine-4,3′-piperidin]-2(1H)-one], 14.7 nM; under `O=C1Nc2ccc(Cl)c(F)c2[C@@]2(CCCN(C(=O)c3cnn(Cc4ccc5c(c4)CNC5=O)c3)C2)O1` [Example 61, (R)-6-chloro-5-fluoro-1′-(1-((1-oxoisoindolin-5-yl)methyl)-1H-pyrazole-4-carbonyl)spiro[benzo[d][1,3]oxazine-4,3′-piperidin]-2(1H)-one], 36.5 nM.
Under `NS(=O)(=O)c1cccc(Cn2cc(C(=O)N3CCC[C@@]4(C3)OC(=O)Nc3ccc(Cl)c(F)c34)cn2)c1` [Example 62, (R)-3-((4-(6-chloro-5-fluoro-2-oxo-1,2-dihydrospiro[benzo[d][1,3]oxazine-4,3′-piperidine]-1′-carbonyl)-1H-pyrazol-1-yl)methyl)benzenesulfonamide] stands 49.5 nM; under `CS(=O)(=O)c1cccc(Cn2cc(C(=O)N3CCC[C@@]4(C3)OC(=O)Nc3ccc(Cl)c(F)c34)cn2)c1` [Example 63, (R)-6-chloro-5-fluoro-1′-(1-(3-(methylsulfonyl)benzyl)-1H-pyrazole-4-carbonyl)spiro[benzo[d][1,3]oxazine-4,3′-piperidin]-2(1H)-one], 42.6 nM; under `O=C1Nc2ccc(Cl)c(F)c2[C@@]2(CCCN(C(=O)c3cnn(Cc4ccc5c(c4)CNS5(=O)=O)c3)C2)O1` [Example 64, (R)-6-chloro-1′-(1-((1,1-dioxido-2,3-dihydrobenzo[d]isothiazol-5-yl)methyl)-1H-pyrazole-4-carbonyl)-5-fluorospiro[benzo[d][1,3]oxazine-4,3′-piperidin]-2(1H)-one], 24.2 nM.
The value for `O=C1Nc2ccc(Cl)c(F)c2[C@@]2(CCCN(C(=O)c3nnc(Cc4ccc(F)c(Cl)c4)[nH]3)C2)O1` [Example 87, (R)-6-Chloro-1′-(5-(3-chloro-4-fluorobenzyl)-4H-1,2,4-triazole-3-carbonyl)-5-fluorospiro[benzo[d][1,3]oxazine-4,3′-piperidin]-2(1H)-one] was 49.7 nM.
Turning to `O=C1Nc2ccc(Cl)c(F)c2[C@@]2(CCCN(C(=O)c3nnc(Cc4cccc(OC(F)F)c4)[nH]3)C2)O1` [Example 90, (R)-6-Chloro-1′-(5-(3-(difluoromethoxy)benzyl)-4H-1,2,4-triazole-3-carbonyl)-5-fluorospiro[benzo[d][1,3]oxazine-4,3′-piperidin]-2(1H)-one], the IC50 was 33.4 nM.
The value for `Cn1cc(-c2ccc(Cc3nnc(C(=O)N4CCC[C@@]5(C4)OC(=O)Nc4ccc(Cl)c(F)c45)[nH]3)cc2)cn1` [Example 91, (R)-6-Chloro-5-fluoro-1′-(5-(4-(1-methyl-1H-pyrazol-4-yl)benzyl)-4H-1,2,4-triazole-3-carbonyl)spiro[benzo[d][1,3]oxazine-4,3′-piperidin]-2(1H)-one] was 25.2 nM; that for `O=C1Nc2ccc(Cl)c(F)c2[C@@]2(CCCN(C(=O)c3nnc([C@](O)(c4ccccc4)C(F)(F)F)[nH]3)C2)O1` [Example 108, (R)-6-Chloro-5-fluoro-1′-(5-((R)-2,2,2-trifluoro-1-hydroxy-1-phenylethyl)-4H-1,2,4-triazole-3-carbonyl)spiro[benzo[d][1,3]oxazine-4,3′-piperidin]-2(1H)-one] was 20.1 nM.
The value for `Cc1cccc(Cc2n[nH]c(C(=O)N3CCC[C@@]4(C3)OC(=O)Nc3ccc(Cl)c(F)c34)n2)c1` [Example 113, (R)-6-Chloro-1′-(3-(3-methylbenzyl)-1H-1,2,4-triazole-5-carbonyl)-5-fluorospiro[benzo[d][1,3]oxazine-4,3′-piperidin]-2(1H)-one] was 18.3 nM; that for `O=C1Nc2ccc(Cl)c(F)c2[C@@]2(CCCN(C(=O)c3nnc(Cc4ccccc4F)[nH]3)C2)O1` [Example 114, (R)-6-Chloro-5-fluoro-1′-(5-(2-fluorobenzyl)-4H-1,2,4-triazole-3-carbonyl)spiro[benzo[d][1,3]oxazine-4,3′-piperidin]-2(1H)-one] was 33.1 nM.
The value for `O=C1Nc2ccc(Cl)c(F)c2[C@@]2(CCCN(C(=O)c3nnc(Cc4cccc(C(F)(F)F)c4)[nH]3)C2)O1` [Example 115, (R)-6-Chloro-5-fluoro-1′-(5-(3-(trifluoromethyl)benzyl)-4H-1,2,4-triazole-3-carbonyl)spiro[benzo[d][1,3]oxazine-4,3′-piperidin]-2(1H)-one] was 23.9 nM; that for `O=C1Nc2ccc(Cl)c(F)c2[C@@]2(CCCN(C(=O)c3nnc(Cc4cccc(CO)c4)[nH]3)C2)O1` [Example 116, (R)-6-Chloro-5-fluoro-1′-(5-(3-(hydroxymethyl)benzyl)-4H-1,2,4-triazole-3-carbonyl)spiro[benzo[d][1,3]oxazine-4,3′-piperidin]-2(1H)-one] was 39.9 nM.
